Data as given in ChEMBL document CHEMBL1201862, “PubChem BioAssay data set” (2004).
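Cells were grown in 96-well plates and exposed to each compound for 48 hours at five concentrations; endpoints were interpolated linearly between bracketing concentrations, or set to the highest concentration if not reached. Here, GI50 denotes the concentration required for 50% inhibition of growth.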 Calls of active or inactive are those of the source. Rule as the data show it: active = GI50 up to about 1.1 µM and inactive = higher.

What was measured:
Experiment in all cases: NCI-60 cell line screen, 48 h
786-0 = test system: 786-0
A498 = test system: A498
A549 = test system: A549
ACHN = test system: ACHN
BT-549 = test system: BT-549
CAKI-1 = test system: CAKI-1
CCRF-CEM = test system: CCRF-CEM
COLO 205 = test system: COLO 205
DU-145 = test system: DU-145
EKVX = test system: EKVX
HCC 2998 = test system: HCC 2998
HCT-116 = test system: HCT-116
HCT-15 = test system: HCT-15
HL-60 = test system: HL-60
HOP-62 = test system: HOP-62
HOP-92 = test system: HOP-92
HT-29 = test system: HT-29
Hs-578T = test system: Hs-578T
IGROV-1 = test system: IGROV-1
K562 = test system: K562
KM12 = test system: KM12
LOX IMVI = test system: LOX IMVI
M14 = test system: M14
MCF7 = test system: MCF7
MDA-MB-231 = test system: MDA-MB-231
MDA-MB-435 = test system: MDA-MB-435
MDA-N = test system: MDA-N
MOLT-4 = test system: MOLT-4
Malme-3M = test system: Malme-3M
NCI-H226 = test system: NCI-H226
NCI-H23 = test system: NCI-H23
NCI-H460 = test system: NCI-H460
NCI-H522 = test system: NCI-H522
NCI/ADR-RES = test system: NCI/ADR-RES
OVCAR-3 = test system: OVCAR-3
OVCAR-4 = test system: OVCAR-4
OVCAR-5 = test system: OVCAR-5
OVCAR-8 = test system: OVCAR-8
PC-3 = test system: PC-3
RPMI-8226 = test system: RPMI-8226
RXF 393 = test system: RXF 393
SF-268 = test system: SF-268
SF-295 = test system: SF-295
SF-539 = test system: SF-539
SK-MEL-28 = test system: SK-MEL-28
SK-MEL-2 = test system: SK-MEL-2
SK-MEL-5 = test system: SK-MEL-5
SK-OV-3 = test system: SK-OV-3
SN12C = test system: SN12C
SNB-19 = test system: SNB-19
SNB-75 = test system: SNB-75
SR = test system: SR
SW-620 = test system: SW-620
T47D = test system: T47D
TK-10 = test system: TK-10
U-251 = test system: U-251
UACC-257 = test system: UACC-257
UACC-62 = test system: UACC-62
UO-31 = test system: UO-31
DLD-1 = test system: DLD-1
DMS-114 = test system: DMS-114
DMS-273 = test system: DMS-273
KM-20L2 = test system: KM-20L2
LXFL 529 = test system: LXFL 529
M19-MEL = test system: M19-MEL
SNB-78 = test system: SNB-78
XF498 = test system: XF498

Measured: GI50

CCc1c(C)c(C#N)c(=S)n(C2OC(COC(C)=O)C(OC(C)=O)C(OC(C)=O)C2OC(C)=O)c1-c1ccccc1 (stereo unspecified)
> 31.6 µM: HCT-15
inactive: 786-0 20.7 µM | A498 14.6 µM | A549 > 31.6 µM | ACHN 23.7 µM | BT-549 52.1 µM | CAKI-1 72.3 µM | CCRF-CEM 33.7 µM | COLO 205 > 31.6 µM | DU-145 > 31.6 µM | EKVX 97.9 µM | HCC 2998 > 31.6 µM | HCT-116 26.7 µM | HL-60 > 100 µM | HOP-62 15.8 µM | HOP-92 22.1 µM | HT-29 > 31.6 µM | Hs-578T 20.7 µM | IGROV-1 23.7 µM | K562 21.1 µM | KM12 > 31.6 µM | LOX IMVI > 31.6 µM | M14 > 31.6 µM | MCF7 > 31.6 µM | MDA-MB-231 28.4 µM | MDA-MB-435 > 31.6 µM | MDA-N > 31.6 µM | MOLT-4 > 31.6 µM | Malme-3M > 31.6 µM | NCI-H226 18.5 µM | NCI-H23 > 31.6 µM | NCI-H460 > 31.6 µM | NCI-H522 26.1 µM | NCI/ADR-RES > 31.6 µM | OVCAR-3 > 31.6 µM | OVCAR-4 > 31.5 µM | OVCAR-5 > 31.6 µM | OVCAR-8 > 31.6 µM | PC-3 > 10 µM | RPMI-8226 82 µM | RXF 393 > 10 µM | SF-268 > 31.6 µM | SF-295 16.2 µM | SF-539 23.6 µM | SK-MEL-28 > 31.6 µM | SK-MEL-2 21.8 µM | SK-MEL-5 > 31.6 µM | SK-OV-3 > 10 µM | SN12C > 31.6 µM | SNB-19 > 10 µM | SNB-75 1.84 µM | SR > 31.6 µM | SW-620 > 100 µM | T47D > 31.6 µM | TK-10 22.1 µM | U-251 17.3 µM | UACC-257 > 31.6 µM | UACC-62 > 10 µM | UO-31 > 24.6 µM

CC(C)OP(=O)(OC(C)C)/C(=N/Nc1ccc([N+](=O)[O-])cc1)Nc1ccccc1
inactive: 786-0 24.1 µM | A498 > 10 µM | A549 23.1 µM | ACHN 24.8 µM | CAKI-1 34.7 µM | CCRF-CEM 18.4 µM | COLO 205 21.6 µM | DLD-1 28.1 µM | DMS-114 20.4 µM | DMS-273 25.3 µM | EKVX 35.1 µM | HCC 2998 49.5 µM | HCT-116 16.4 µM | HL-60 18.2 µM | HOP-62 29.7 µM | HOP-92 17.5 µM | K562 21.1 µM | KM-20L2 24.2 µM | KM12 20.8 µM | LOX IMVI 33.7 µM | LXFL 529 19.5 µM | M14 20.2 µM | M19-MEL 47.2 µM | MOLT-4 10.7 µM | Malme-3M 19.8 µM | NCI-H226 16.4 µM | NCI-H23 26.2 µM | NCI-H460 33 µM | NCI-H522 17.9 µM | OVCAR-3 32.2 µM | OVCAR-4 28.4 µM | OVCAR-5 > 100 µM | OVCAR-8 34.8 µM | RPMI-8226 20.3 µM | SF-268 25 µM | SF-539 33.9 µM | SK-MEL-28 23.9 µM | SK-MEL-2 40.1 µM | SK-MEL-5 12.2 µM | SN12C 48.6 µM | SNB-19 36.7 µM | SNB-75 36.6 µM | SNB-78 17.5 µM | SR 16.6 µM | SW-620 33 µM | TK-10 12.4 µM | U-251 21.2 µM | UACC-257 21 µM | UACC-62 10.8 µM | UO-31 77.3 µM | XF498 22.2 µM
32.4 µM: HCT-15

C=CNC(=S)n1nc(-c2ccccc2NC(=O)C(F)(F)F)c(=O)n(C(=S)NC=C)c1=S
16.4 µM: HCT-15
inactive: ACHN 24.4 µM | CAKI-1 23.1 µM | CCRF-CEM 24.9 µM | COLO 205 > 10 µM | DLD-1 16.7 µM | DMS-114 12.3 µM | DMS-273 26.8 µM | EKVX 22.3 µM | HCC 2998 47.9 µM | HCT-116 > 100 µM | HOP-62 29.6 µM | HOP-92 10.5 µM | HT-29 18.6 µM | IGROV-1 54 µM | K562 18.1 µM | KM12 29.3 µM | LOX IMVI 31.8 µM | LXFL 529 19.5 µM | M14 34.6 µM | M19-MEL 31.8 µM | MOLT-4 15.4 µM | Malme-3M 56.2 µM | NCI-H226 21.2 µM | NCI-H23 26.7 µM | NCI-H460 15.1 µM | NCI-H522 11.2 µM | OVCAR-3 13.3 µM | OVCAR-4 3.58 µM | OVCAR-5 26.7 µM | OVCAR-8 33 µM | RXF 393 73.6 µM | SF-268 15.4 µM | SF-295 19.2 µM | SK-MEL-28 > 100 µM | SK-MEL-2 73.3 µM | SK-MEL-5 13.3 µM | SK-OV-3 30.3 µM | SN12C 48.9 µM | SNB-19 28.6 µM | SNB-75 26 µM | SNB-78 51.1 µM | SR 16.4 µM | SW-620 59.8 µM | TK-10 > 100 µM | U-251 34.9 µM | UACC-62 45.8 µM | UO-31 13.9 µM | XF498 30.2 µM

CC(=O)Nc1ccc2c3c(cc(O)c2c1)N(C(=O)CCCCCCC(=O)Nc1ccc2c4c(cc(O)c2c1)N(C(=O)OC(C)(C)C)CC4CCl)CC3CCl (stereo unspecified)
inactive: NCI/ADR-RES > 35.4 µM
2.64 µM: HCT-15
active: 786-0 0.0757 µM | A498 0.0244 µM | A549 0.195 µM | ACHN 0.0484 µM | BT-549 0.146 µM | CAKI-1 1.02 µM | CCRF-CEM < 0.01 µM | COLO 205 0.103 µM | DU-145 0.0211 µM | EKVX 0.304 µM | HCC 2998 0.0502 µM | HCT-116 0.0408 µM | HL-60 < 0.0108 µM | HOP-62 0.091 µM | HOP-92 0.158 µM | HT-29 0.155 µM | Hs-578T 0.264 µM | IGROV-1 0.0822 µM | K562 0.117 µM | KM12 0.169 µM | LOX IMVI 0.0391 µM | M14 0.0791 µM | MCF7 < 0.01 µM | MDA-MB-231 0.319 µM | MDA-MB-435 0.132 µM | MDA-N 0.134 µM | MOLT-4 < 0.01 µM | Malme-3M 0.083 µM | NCI-H226 0.144 µM | NCI-H23 0.0337 µM | NCI-H460 0.0233 µM | NCI-H522 0.0387 µM | OVCAR-3 0.045 µM | OVCAR-4 0.218 µM | OVCAR-5 0.109 µM | OVCAR-8 0.0973 µM | PC-3 0.105 µM | RPMI-8226 0.0877 µM | RXF 393 0.016 µM | SF-268 0.0291 µM | SF-295 0.0776 µM | SF-539 0.0637 µM | SK-MEL-28 0.279 µM | SK-MEL-2 0.0423 µM | SK-MEL-5 0.0217 µM | SK-OV-3 0.0705 µM | SN12C 0.13 µM | SNB-19 0.046 µM | SNB-75 0.0776 µM | SR < 0.01 µM | SW-620 0.0968 µM | T47D 0.0573 µM | TK-10 0.344 µM | U-251 0.0205 µM | UACC-257 0.148 µM | UACC-62 0.0695 µM | UO-31 1.04 µM

OCC1OC(n2cnc3c2NC=NC[C@H]3O)CC1O (stereo partly specified)
inactive: 786-0 455 µM | A498 422 µM | ACHN 400 µM | BT-549 > 500 µM | CCRF-CEM 392 µM | COLO 205 472 µM | DLD-1 494 µM | DMS-114 426 µM | DMS-273 489 µM | DU-145 324 µM | EKVX 489 µM | HCC 2998 387 µM | HCT-116 483 µM | HL-60 417 µM | HOP-62 417 µM | HOP-92 398 µM | Hs-578T > 500 µM | IGROV-1 450 µM | K562 469 µM | KM-20L2 > 500 µM | KM12 495 µM | LOX IMVI 463 µM | LXFL 529 > 500 µM | M14 418 µM | M19-MEL 354 µM | MCF7 441 µM | MDA-MB-231 > 500 µM | MDA-MB-435 > 500 µM | MDA-N > 500 µM | MOLT-4 418 µM | Malme-3M 458 µM | NCI-H226 484 µM | NCI-H23 486 µM | NCI-H460 418 µM | NCI-H522 444 µM | NCI/ADR-RES 462 µM | OVCAR-3 497 µM | OVCAR-4 470 µM | OVCAR-5 > 500 µM | OVCAR-8 489 µM | PC-3 > 500 µM | RPMI-8226 478 µM | RXF 393 484 µM | SF-268 472 µM | SF-295 448 µM | SK-MEL-28 493 µM | SK-MEL-2 497 µM | SK-MEL-5 483 µM | SK-OV-3 467 µM | SN12C 483 µM | SNB-19 479 µM | SNB-75 337 µM | SNB-78 483 µM | SR 359 µM | T47D 258 µM | TK-10 > 500 µM | U-251 480 µM | UACC-257 407 µM | UACC-62 415 µM | UO-31 460 µM | XF498 442 µM
> 500 µM: HCT-15
